Reference: patent US20120220581A1, “IMIDAZO[1,2-b]PYRIDAZINE DERIVATIVES AND THEIR USE AS PDE10 INHIBITORS” (Janssen-Cilag, S.A., priority 2009, published 2012)
Like-named read-outs stand apart in the source and are kept apart here.

Key:
[1] = tested on: female hooded-Lister rats; assay: Object recognition test (NOR) after sub-chronic PCP; format: in vivo, rat; conditions: for LMA (no. of lines crossed): mean
Method: 60 female hooded-Lister rats (Charles River, UK) were used as subjects for these studies and weighed 248 g±20 g. Rats were allowed at least a 7-day acclimatization period to the animal unit prior to commencement of experimentation. Rats were housed in groups of 5 under standard laboratory conditions under a 12 h light:dark cycle, lights on at 0700 h. All testing was carried out in the light phase. Food and water were freely provided. All experiments were conducted in accordance with the Animals Scientific Procedures Act, U.K. 1986 and were approved by the University of Bradford ethical review panel.
40 mg of test compound was dissolved in 5 ml of 40% hydroxypropyl β-cyclodextrin (HPBC) solution. The solution was sonicated until completely dissolved. 2 ml of sterile water was added and the pH measured and adjusted with NaOH solution (0.1N) to obtain pH ˜4. Finally, sterile water was added to a final volume of 10 ml. This stock solution was then diluted in 20% HPBC to obtain the final concentrations. 100 mg of PQ10 was dissolved in a 40% HPBC solution and 8 mg of tartaric acid. The solution was sonicated until completely dissolved. 5 ml of sterile water was added and the pH measured and adjusted with NaOH solution (0.1N) to obtain pH ˜4. Finally sterile water was added to a final volume of 10 ml.
Test compound was administered at doses of 0.3 and 1.0 mg/kg via the oral route 30 min prior to testing.
PQ10 was administered at a dose of 1.0 mg/kg via the oral route 30 min prior to testing.
Certain pre-clinical tests allow the observation of relatively subtle cognitive deficits in the rat that resemble cognitive symptoms in subjects with schizophrenia. The cognitive deficits observed are seen in behaviours such as episodic memory, which can be measured by recognition tasks such as the novel object recognition (NOR) paradigm. A recognition memory task allows the comparison between presented stimuli and previously stored information. Ennaceur, A Delacour, J (1988) A new one-trial test for neurobiological studies of memory in rats Behav Brain Res 31: 47-59 described the NOR test in rats which was based on the differential exploration of familiar and new objects. The NOR test is a non-rewarded, ethologically relevant paradigm based on the spontaneous exploratory behaviour of rats that measures episodic memory. Each session consists of two trials. In the first trial, the rats are exposed to two identical objects in an open field. During the second trial, rats are exposed to two dissimilar objects, one familiar object from the first trial and one new object. Object recognition in rats can be measured as the difference in time spent exploring the familiar and the new object. […] The duration of each trial is also important as a preference for the novel object only lasts during the first 1 or 2 minutes, after which time preference diminishes as both objects become familiar and are explored equally.
Rats were randomly assigned to the 8 treatment groups
Rats were allowed to habituate to the empty test box and the behavioural test room environment for 1 h on day 1. Prior to behavioural testing on day 2 rats were given a further 3 min habituation.
Following the 3 min habituation period, the rats were given two 3 min trials (T1 and T2) which were separated by a 1 min inter-trial interval in the home cage during which the objects were changed.
In this trial, the animals were allowed to explore two identical objects (A1 and A2) for 3 min.
In this trial, the animals explored a familiar object (A) from T1 and a novel object (B) for 3 min. The familiar object presented during T2 was a duplicate of the object presented in T1 in order to avoid any olfactory trails.
The object exploration was defined by animals licking, sniffing or touching the object with the forepaws whilst sniffing, but not leaning against, turning around, standing or sitting on the object. […]

[2] = molecular target: T1, Rat recombinant PDE10A (rPDE10A2) (Rattus norvegicus, UniProt Q9QYJ6); assay: In vitro assay PDE10A (SPA, 3H-cAMP); format: biochemical
T1 construct: inferred from the Ni metal chelate purification; made in house; host or cells: Sf9 insect cells (baculovirus)
T1 sequence (Q9QYJ6 1-794): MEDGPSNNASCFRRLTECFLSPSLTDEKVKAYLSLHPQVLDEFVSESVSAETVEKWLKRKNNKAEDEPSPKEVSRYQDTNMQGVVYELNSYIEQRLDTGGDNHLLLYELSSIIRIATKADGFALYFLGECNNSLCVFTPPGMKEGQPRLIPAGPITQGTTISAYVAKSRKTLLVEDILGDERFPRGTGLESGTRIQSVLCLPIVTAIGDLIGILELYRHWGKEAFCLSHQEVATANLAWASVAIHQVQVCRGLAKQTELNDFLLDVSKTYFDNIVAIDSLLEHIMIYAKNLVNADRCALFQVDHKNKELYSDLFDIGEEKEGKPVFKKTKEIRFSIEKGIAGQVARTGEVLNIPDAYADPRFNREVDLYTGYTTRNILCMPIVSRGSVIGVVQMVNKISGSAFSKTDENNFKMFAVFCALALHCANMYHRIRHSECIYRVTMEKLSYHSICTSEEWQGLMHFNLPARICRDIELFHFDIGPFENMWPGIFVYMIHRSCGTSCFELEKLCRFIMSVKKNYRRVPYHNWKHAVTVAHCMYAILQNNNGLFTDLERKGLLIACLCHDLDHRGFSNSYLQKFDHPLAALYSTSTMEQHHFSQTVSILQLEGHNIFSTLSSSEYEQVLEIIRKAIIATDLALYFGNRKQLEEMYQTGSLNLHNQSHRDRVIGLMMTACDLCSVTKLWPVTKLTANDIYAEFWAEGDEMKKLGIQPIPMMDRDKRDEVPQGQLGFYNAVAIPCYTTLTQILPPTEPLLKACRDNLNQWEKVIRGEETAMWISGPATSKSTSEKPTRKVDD
Procedure, shortened: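 Rat PDE10A2 expressed in Sf9 cells and Ni-purified; incubated with 60 nM cAMP plus 0.008 μCi 3H-cAMP in 50 mM Tris pH 7.8, 8.3 mM MgCl2, 1.7 mM EGTA for 60 min at room temperature. Product quantified by scintillation proximity counting; final DMSO 1%.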

Structure (SMILES)	LMA (no. of lines crossed) ([1]; PCP + 0.3 mg/kg p.o.)	LMA (no. of lines crossed) ([1]; PCP + 1 mg/kg p.o.)	effects of acute treatment in the NOR task ([1]; acute treatment, oral route 30 min prior to testing, compound 1 0.3-1.0 mg/kg, PQ10 1.0 mg/kg, sub-chronic PCP female rats)	IC50 ([2]; Table 4 in vitro selectivity, read-out: PDE 10A2 (expressed as pIC50) (converted)) [nM]	IC50 ([2]; pIC50 corresponds to the −log IC50 expressed in mol/L, read-out: PDE10A2 pIC50 (converted)) [nM]
COCCc1ccc(-c2c(C)nc3c(N4CCOCC4)ccnn23)cn1 [compound 1, 3-[6-(2-methoxyethyl)-3-pyridinyl]-2-methyl-8-(4-morpholinyl)-imidazo[1,2-b]pyridazine]	56.5 no. of lines crossed	56.4 no. of lines crossed	selective for the retention phase	–	–
COCCOc1ccc(-c2c(C)nc3c(-c4ccncc4)ccnn23)cn1 [compound 21, 3-[6-(2-methoxyethoxy)-3-pyridinyl]-2-methyl-8-(4-pyridinyl)-imidazo[1,2-b]pyridazine]	–	–	–	102	102
